Measured values taken from BigSolDB 2.1.

NC(=O)Cc1ccc(O)cc1
solubility (mole fraction)
Conditions | 278.15 K | 283.15 K | 288.15 K | 293.15 K | 298.15 K | 303.15 K | 308.15 K | 313.15 K | 318.15 K | 323.15 K
in acetonitrile | 0.00096 | 0.00141 | 0.00188 | 0.00249 | 0.00305 | 0.00376 | 0.00463 | 0.00573 | 0.00705 | 0.00869
in ethanol | 0.00381 | 0.00459 | 0.00534 | 0.00638 | 0.00752 | 0.00902 | 0.0107 | 0.0126 | 0.015 | 0.0179
in ethyl acetate | 0.0017 | 0.00196 | 0.00238 | 0.00297 | 0.00363 | 0.00455 | 0.00557 | 0.00663 | 0.0078 | 0.00932
in isopropanol | 0.00319 | 0.00379 | 0.0046 | 0.00552 | 0.00684 | 0.00852 | 0.0102 | 0.0122 | 0.0142 | 0.0164
in methanol | 0.0075 | 0.00824 | 0.00951 | 0.0111 | 0.0128 | 0.0148 | 0.0169 | 0.0192 | 0.0218 | 0.0246
in methyl acetate | 0.0032 | 0.00359 | 0.00415 | 0.00486 | 0.00577 | 0.0068 | 0.00779 | 0.00908 | 0.0103 | 0.0118
in n-butanol | 0.00284 | 0.00346 | 0.00428 | 0.00508 | 0.00642 | 0.00754 | 0.00899 | 0.0106 | 0.0125 | 0.0144
in n-butyl acetate | 0.00269 | 0.003 | 0.00345 | 0.0041 | 0.00491 | 0.00587 | 0.00694 | 0.00812 | 0.00935 | 0.0105
in n-heptane | 0.00061 | 0.00087 | 0.00111 | 0.00145 | 0.00194 | 0.00253 | 0.00329 | 0.00418 | 0.00509 | 0.00627
in n-hexane | 0.00032 | 0.00053 | 0.00082 | 0.00116 | 0.00151 | 0.00205 | 0.00263 | 0.00343 | 0.00438 | 0.0056
in n-propanol | 0.00215 | 0.00245 | 0.00292 | 0.0035 | 0.00424 | 0.0052 | 0.00629 | 0.00734 | 0.00868 | 0.01
in water | 0.00096 | 0.00141 | 0.00188 | 0.00249 | 0.00305 | 0.00376 | 0.00463 | 0.00573 | 0.00705 | 0.00869
